Where two headings read alike, the source gives them in different places.
Experiments:
[1] = target: T1, Dα1/Dα2/Dβ1/Dβ2/Dβ3 nAChR; assay: Voltage-clamp electrophysiology, nAChR expressed in X. laevis oocytes; assay type: cell-based, D. melanogaster; conditions: mean ± standard error (n = 5); for Imax: normalised to maximum ACh response
T1 construct: Dα1 (NP_524481); Dα2 (NP_524482); Dβ1 (NP_523927); Dβ2 (NP_524483); expressed in transfected cells; host or cells: Xenopus laevis oocytes (cRNA injection)
Experimental: (§1) cDNAs of the nAChR subunits and co-factors were cloned into pcDNA3.1 (+) vector (Thermo Fisher Scientific). The accession numbers of the nAChR subunits and cofactors are as follows: Dα1 (NP_524481), Dα2 (NP_524482), Dα3 (NP_525079), Dα4 (CAB77445), Dβ1 (NP_523927), Dβ2 (NP_524483), Dβ3 (NP_525098), DmRIC-3 (CAP16647), DmUNC-50 (NP_649813), and DmTMX3 (NP_648847). cRNAs were prepared using the mMESSAGE mMACHINE T7 ULTRA Transcription Kit (Thermo Fisher Scientific, #AM1345) according to the manual with the cDNA template which was cut with appropriate restriction enzymes at the 3’ end of the cDNA.
(§2) We minimised the use of X. laevis according to the UK Animals (Scientific Procedures) Act, 1986. […] Oocytes were defolliculated after collagenase treatment in Ca^2+-free standard oocyte saline (Ca^2+-free SOS). cRNAs of the nAChR subunits and co-factors mixed at a concentration of 0.1 mg/mL was injected into oocytes at a volume of 50 nL. Then the oocytes were incubated in the incubation medium (SOS supplemented with sodium pyruvate (Nacalai Tesque, #13058–12), penicillin-streptomycin (MilliporeSigma, #P4333), gentamycin (Nacalai Tesque, #16672–04), and 4% horse serum (Thermo Fisher Scientific, #26050–070) for 3−4 days prior to electrophysiology.
(§3) Each defolliculated X. laevis oocyte was secured in a Perspex recording chamber and perfused with the standard oocyte saline (SOS) containing 0.5 μM atropine (SOSA) at a flow rate of 7−10 mL/min [48]. Two glass electrodes filled with 2 M KCl were impaled into each oocyte and the membrane potential was clamped at -100 mV. […] The peak amplitude of the response was measured and analysed by pCLAMP (Molecular Devices, USA).
(§4) Y=Imax/1+10^(logEC50‐X)nH
(§5) Where Y is the normalised response, X is log[ligand (M)], EC50 is the half maximal concentration (M), Imax is the maximum normalised response and nH is the Hill coefficient.

[2] = target: T2, Dα1/Dα3/Dβ1/Dβ2/Dβ3 nAChR; assay: as above; assay type: cell-based, D. melanogaster; conditions: mean ± standard error (n = 5); for Imax: normalised to maximum ACh response
T2 construct: Dα1 (NP_524481); Dβ1 (NP_523927); Dβ2 (NP_524483); expressed in transfected cells; host or cells: Xenopus laevis oocytes (cRNA injection)
Experimental: as §1, §2, §3, §4, §5

Dα2/Dα3/Dβ1/Dβ2 nAChR = target: T3, Dα2/Dα3/Dβ1/Dβ2 nAChR (Drosophila melanogaster, UniProt P04755+P17644+P25162+Q9W3G6); assay: as above; assay type: cell-based, D. melanogaster; conditions: mean ± standard error (n = 5)
T3 construct: Dα2 (NP_524482); Dβ1 (NP_523927); Dβ2 (NP_524483); expressed in transfected cells; host or cells: Xenopus laevis oocytes (cRNA injection)
Experimental: as §1, §2, §3, §4, §5

[3] = target: T4, Dα2/Dα3/Dβ1/Dβ2/Dβ3 nAChR; assay: as above; assay type: cell-based, D. melanogaster; conditions: mean ± standard error (n = 5); for Imax: normalised to maximum ACh response
T4 construct: Dα2 (NP_524482); Dβ1 (NP_523927); Dβ2 (NP_524483); expressed in transfected cells; host or cells: Xenopus laevis oocytes (cRNA injection)
Experimental: as §1, §2, §3, §4, §5

Dα3/Dβ1/Dβ2 nAChR = target: T5, Dα3/Dβ1/Dβ2 nAChR (Drosophila melanogaster, UniProt P04755+P25162+Q9W3G6); assay: as above; assay type: cell-based, D. melanogaster; conditions: Dα3/Dβ1/Dβ2 nAChR
T5 construct: Dβ1 (NP_523927); Dβ2 (NP_524483); expressed in transfected cells; host or cells: Xenopus laevis oocytes (cRNA injection)
Experimental: as §1, §2, §3, §4, §5

[4] = target: Dα1/Dα2/Dα4/Dβ1/Dβ2 nAChR; conditions: mean ± standard error (n = 5); for Imax: normalised to maximum ACh response
Experimental: as §1, §2, §3, §4, §5

[5] = target: Dα1/Dα3/Dα4/Dβ1/Dβ2 nAChR; conditions: mean ± standard error (n = 5); for Imax: normalised to maximum ACh response
Experimental: as §1, §2, §3, §4, §5

[6] = target: Dα2/Dα3/Dα4/Dβ1/Dβ2 nAChR; conditions: mean ± standard error (n = 5); for Imax: normalised to maximum ACh response
Experimental: as §1, §2, §3, §4, §5

[7] = system: Adult D. melanogaster flies; assay: Adult climbing assay; assay type: in vivo; conditions: RNAi of Dα2
Experimental: All flies were raised at 25°C under 12 h/12 h light/dark cycle. The animals were reared on standard fly food containing 5.5 g agar, 100 g glucose, 40 g dry yeast, 90 g cornflour, 3 mL propionic acid, and 3.5 mL 10% butyl p-hydroxybenzoate (Nacalai Tesque, Japan, #06327–15) in 70% ethanol per liter. The control strain was w^1118, and transgenic flies are as follows: UAS-nAChRα1 RNAi (#28688) was obtained from the Bloomington Drosophila Stock Center (BDSC); UAS-nAChRα2 RNAi (UAS-Dα2 RNAi, #10760), UAS-nAChRα3 RNAi (UAS-Dα3 RNAi, #101806); UAS-dicer2 (#60009) were obtained from the Vienna Drosophila Resource Center (VDRC); and UAS-mCD8::GFP (#108068) was obtained from Kyoto Stock Center. elav-Gal4 (3A3) was obtained from Michael B. O’Connor. nAChRα3-knock-in 2A-Gal4 (Dα3-knock-in T2A-Gal4) was generated by the CRISPR/Cas9 system as described in detail below.
Adult D. melanogaster flies were collected within a day following eclosion and placed in normal fly food (less than 30 flies/vial). Flies were transferred daily to new fly food. 2–5 days after eclosion, flies were briefly anesthetised with CO2, and the sexes were separated and sorted into fly vials containing 1.0% agar food for starvation (10 flies/vial). After 16 h starvation, flies were transferred to vials containing neonicotinoid-containing food without anesthesia and cultured for 6 h (10 flies/vial). Neonicotinoid-containing foods were prepared by mixing 10 μL of diluted neonicotinoids dissolved in DMSO with 990 μL of a solution containing 1% agar and 5% sucrose for each vial. After 6 h cultured in vials containing neonicotinoid-containing food, flies were gently tapped down to the surface of the food, and flies that climbed within 20 s after tapping were recorded by a video camera (GZ-F270-W, JVCKENWOOD, Japan). The maximum climbing heights of the flies within 20 s after tapping were measured using ImageJ1.53v (National Institute of Health, USA). Since the height from the surface of the food to the vial top is 8 cm, the maximum climbing height is 8 cm.

[8] = normalised to maximum ACh response
[9] = normalised to maximum ACh response, mean ± standard error (n = 5)
[10] = efficacy, mean ± standard error (n = 5)

| SMILES | pEC50 [1] | Imax [1] | pEC50 [2] | Imax [2] | Imax (Dα2/Dα3/Dβ1/Dβ2 nAChR; efficacy) | EC50 (Dα2/Dα3/Dβ1/Dβ2 nAChR) [nM] | Imax (Dα2/Dα3/Dβ1/Dβ2 nAChR; [8]) | pEC50 [3] | Imax [3] | Imax (Dα3/Dβ1/Dβ2 nAChR; [9]) | Imax (Dα3/Dβ1/Dβ2 nAChR; [10]) | pEC50 [4] | Imax [4] | pEC50 [5] | Imax [5] | pEC50 [6] | Imax [6] | sensitivity in adults, effect of RNAi ([7]; adult females) | sensitivity in adults, effect of RNAi ([7]; adult males) | EC50 (Dα3/Dβ1/Dβ2 nAChR; read-out: EC50) [nM] | further results |
| --- | --- | --- | --- | --- | --- | --- | --- | --- | --- | --- | --- | --- | --- | --- | --- | --- | --- | --- | --- | --- | --- |
| N#C/N=C1\SCCN1Cc1ccc(Cl)nc1 [Thiacloprid, thiacloprid] | 7.71 ± 0.43 | 0.023 ± 0.004 | 8.63 ± 0.23 | 0.089 ± 0.009 | 0.017 | 8.32 | 0.017 ± 0.002 | 8.31 ± 0.17 | 0.010 ± 0.001 | 0.022 ± 0.003 | 0.022 | 7.01 ± 0.19 | 0.066 ± 0.007 | 7.96 ± 0.10 | 0.026 ± 0.001 | 7.99 ± 0.20 | 0.018 ± 0.002 | hypersensitivity | hypersensitivity | – | Imax ([1]; listed as thiacloprid): 0.023; Imax ([3]; listed as thiacloprid): 0.010; EC50 (Dα3/Dβ1/Dβ2 nAChR; mean ± standard error (n = 5), read-out: pEC50 (converted)): 4.79 nM; Imax ([6]; listed as thiacloprid): 0.018 |
| CC(=O)OCC[N+](C)(C)C [ACh, acetylcholine] | – | – | – | – | 1 | – | – | – | – | – | 1 | – | – | – | – | – | – | – | – | – | – |
| CN/C(=N\[N+](=O)[O-])NCc1cnc(Cl)s1 [Clothianidin, clothianidin] | 5.67 ± 0.11 | 0.974 ± 0.041 | 7.60 ± 0.12 | 0.531 ± 0.026 | 0.634 | 51.3 | 0.634 ± 0.020 | 7.46 ± 0.06 | 0.695 ± 0.014 | 0.492 ± 0.016 | 0.492 | 6.72 ± 0.09 | 1.001 ± 0.031 | 6.94 ± 0.06 | 0.425 ± 0.008 | 7.11 ± 0.12 | 0.912 ± 0.041 | – | hypersensitivity | 34.7 | Imax ([1]; listed as clothianidin): 0.974; Imax ([4]; listed as clothianidin): 1.001; Imax ([5]; listed as clothianidin): 0.425 |
| O=[N+]([O-])NC1=NCCN1Cc1ccc(Cl)nc1 [Imidacloprid, imidacloprid] | 6.27 ± 0.21 | 0.080 ± 0.007 | 7.72 ± 0.11 | 0.140 ± 0.008 | 0.125 | 100 | 0.125 ± 0.018 | 7.75 ± 0.31 | 0.021 ± 0.003 | 0.039 ± 0.002 | 0.039 | 6.48 ± 0.28 | 0.172 ± 0.020 | 7.30 ± 0.17 | 0.101 ± 0.008 | 7.40 ± 0.20 | 0.027 ± 0.002 | hypersensitivity | hypersensitivity | 5.25 | Imax ([1]; listed as imidacloprid): 0.080; Imax ([3]; listed as imidacloprid): 0.021; Imax ([6]; listed as imidacloprid): 0.027 |

Reference: article PMC9934367, “Functional impact of subunit composition and compensation on Drosophila melanogaster nicotinic receptors–targets of neonicotinoids” (PLOS Genetics, 2023)
